In patent US20240391940A1, “FUSED RING-CONTAINING COMPOUND, APPLICATION THEREOF, AND COMPOSITION CONTAINING SAME” (GenEros Biopharma Ltd., priority 2020, published 2024):

Tested on: collagen-induced arthritis (CIA) mouse model
Assay: Mouse CIA model, repeated for dose exploration (10, 30, 50 mg/kg)
Settings: for Significance of clinical score vs. Vehicle group (Two-way ANOVA): CIA mice, GEN1-284s 50 mpk
Excerpt: Testing was repeated for dose exploration
The above method was used.

O=C(Cc1ccc2ncccc2c1)N1CCC(n2c(=O)n(COP(=O)([O-])[O-])c3cccc(C(F)(F)F)c32)CC1.[Na+].[Na+] [GEN1-284 salt, (2-Oxo-3-(1-(2-(quinolin-6-yl)acetyl)piperidin-4-yl)-4-(trifluoromethyl)-2,3-dihydro-1H-benzo[d]imidazol-1-yl)methyl disodium phosphate]
Significance of clinical score vs. Vehicle group (Two-way ANOVA) (Day 35): * (*P < 0.05) | Significance of clinical score vs. Vehicle group (Two-way ANOVA) (Day 38): ** (**P < 0.01) | Significance of clinical score vs. Vehicle group (Two-way ANOVA) (Day 40): ** (**P < 0.01) | Significance of clinical score vs. Vehicle group (Two-way ANOVA) (Day 42): ** (**P < 0.01) | Changes in body weight, Mean ± SEM (G3 GEN1-284s 10 mg/kg, Day 21): 20.64 ± 0.17 | Clinical scores, Mean ± SEM (G3 GEN1-284s 10 mg/kg, Day 21): 0.0 ± 0.00 | Changes in body weight, Mean ± SEM (G3 GEN1-284s 10 mg/kg, Day 24): 20.40 ± 0.28 | Clinical scores, Mean ± SEM (G3 GEN1-284s 10 mg/kg, Day 24): 0.0 ± 0.00 | Changes in body weight, Mean ± SEM (G3 GEN1-284s 10 mg/kg, Day 26): 20.19 ± 0.41 | Clinical scores, Mean ± SEM (G3 GEN1-284s 10 mg/kg, Day 26): 0.3 ± 0.16 | Changes in body weight, Mean ± SEM (G3 GEN1-284s 10 mg/kg, Day 28): 19.34 ± 0.52 | Clinical scores, Mean ± SEM (G3 GEN1-284s 10 mg/kg, Day 28): 0.6 ± 0.18 | Changes in body weight, Mean ± SEM (G3 GEN1-284s 10 mg/kg, Day 31): 18.89 ± 0.44 | Clinical scores, Mean ± SEM (G3 GEN1-284s 10 mg/kg, Day 31): 2.5 ± 0.57 | Changes in body weight, Mean ± SEM (G3 GEN1-284s 10 mg/kg, Day 33): 18.65 ± 0.48 | Clinical scores, Mean ± SEM (G3 GEN1-284s 10 mg/kg, Day 33): 4.1 ± 0.99 | Changes in body weight, Mean ± SEM (G3 GEN1-284s 10 mg/kg, Day 35): 19.04 ± 0.47 | Clinical scores, Mean ± SEM (G3 GEN1-284s 10 mg/kg, Day 35): 5.6 ± 1.29 | Changes in body weight, Mean ± SEM (G3 GEN1-284s 10 mg/kg, Day 38): 19.54 ± 0.38 | Clinical scores, Mean ± SEM (G3 GEN1-284s 10 mg/kg, Day 38): 6.9 ± 1.55 | Changes in body weight, Mean ± SEM (G3 GEN1-284s 10 mg/kg, Day 40): 19.85 ± 0.28 | Clinical scores, Mean ± SEM (G3 GEN1-284s 10 mg/kg, Day 40): 7.5 ± 1.69 | Changes in body weight, Mean ± SEM (G3 GEN1-284s 10 mg/kg, Day 42): 19.90 ± 0.31 | Clinical scores, Mean ± SEM (G3 GEN1-284s 10 mg/kg, Day 42): 7.9 ± 1.79 | Clinical scores: significance vs. solvent control group, two-way ANOVA (G3 GEN1-284s 10 mg/kg, Day 42): * (* p <0.05) | Changes in body weight, Mean ± SEM (G4 GEN1-284s 30 mg/kg, Day 21): 20.25 ± 0.34 | Clinical scores, Mean ± SEM (G4 GEN1-284s 30 mg/kg, Day 21): 0.0 ± 0.00 | Changes in body weight, Mean ± SEM (G4 GEN1-284s 30 mg/kg, Day 24): 19.74 ± 0.33 | Clinical scores, Mean ± SEM (G4 GEN1-284s 30 mg/kg, Day 24): 0.0 ± 0.00 | Changes in body weight, Mean ± SEM (G4 GEN1-284s 30 mg/kg, Day 26): 19.79 ± 0.34 | Clinical scores, Mean ± SEM (G4 GEN1-284s 30 mg/kg, Day 26): 0.3 ± 0.16 | Changes in body weight, Mean ± SEM (G4 GEN1-284s 30 mg/kg, Day 28): 19.48 ± 0.54 | Clinical scores, Mean ± SEM (G4 GEN1-284s 30 mg/kg, Day 28): 0.6 ± 0.18 | Changes in body weight, Mean ± SEM (G4 GEN1-284s 30 mg/kg, Day 31): 19.20 ± 0.56 | Clinical scores, Mean ± SEM (G4 GEN1-284s 30 mg/kg, Day 31): 2.1 ± 0.69 | Changes in body weight, Mean ± SEM (G4 GEN1-284s 30 mg/kg, Day 33): 19.50 ± 0.61 | Clinical scores, Mean ± SEM (G4 GEN1-284s 30 mg/kg, Day 33): 3.6 ± 1.13 | Changes in body weight, Mean ± SEM (G4 GEN1-284s 30 mg/kg, Day 35): 19.68 ± 0.61 | Clinical scores, Mean ± SEM (G4 GEN1-284s 30 mg/kg, Day 35): 5.1 ± 1.25 | Changes in body weight, Mean ± SEM (G4 GEN1-284s 30 mg/kg, Day 38): 19.46 ± 0.56 | Clinical scores, Mean ± SEM (G4 GEN1-284s 30 mg/kg, Day 38): 6.0 ± 1.40 | Clinical scores: significance vs. solvent control group, two-way ANOVA (G4 GEN1-284s 30 mg/kg, Day 38): ** (** p < 0.01) | Changes in body weight, Mean ± SEM (G4 GEN1-284s 30 mg/kg, Day 40): 20.06 ± 0.53 | Clinical scores, Mean ± SEM (G4 GEN1-284s 30 mg/kg, Day 40): 6.9 ± 1.53 | Clinical scores: significance vs. solvent control group, two-way ANOVA (G4 GEN1-284s 30 mg/kg, Day 40): * (* p <0.05) | Changes in body weight, Mean ± SEM (G4 GEN1-284s 30 mg/kg, Day 42): 19.78 ± 0.44 | Clinical scores, Mean ± SEM (G4 GEN1-284s 30 mg/kg, Day 42): 8.1 ± 1.26 | Clinical scores: significance vs. solvent control group, two-way ANOVA (G4 GEN1-284s 30 mg/kg, Day 42): * (* p <0.05) | Changes in body weight, Mean ± SEM (G5 GEN1-284s 50 mg/kg, Day 21): 20.44 ± 0.30 | Clinical scores, Mean ± SEM (G5 GEN1-284s 50 mg/kg, Day 21): 0.0 ± 0.00 | Changes in body weight, Mean ± SEM (G5 GEN1-284s 50 mg/kg, Day 24): 19.66 ± 0.23 | Clinical scores, Mean ± SEM (G5 GEN1-284s 50 mg/kg, Day 24): 0.0 ± 0.00 | Changes in body weight, Mean ± SEM (G5 GEN1-284s 50 mg/kg, Day 26): 19.70 ± 0.26 | Clinical scores, Mean ± SEM (G5 GEN1-284s 50 mg/kg, Day 26): 0.4 ± 0.18 | Changes in body weight, Mean ± SEM (G5 GEN1-284s 50 mg/kg, Day 28): 19.60 ± 0.43 | Clinical scores, Mean ± SEM (G5 GEN1-284s 50 mg/kg, Day 28): 0.6 ± 0.18 | Changes in body weight, Mean ± SEM (G5 GEN1-284s 50 mg/kg, Day 31): 18.88 ± 0.52 | Clinical scores, Mean ± SEM (G5 GEN1-284s 50 mg/kg, Day 31): 1.9 ± 0.67 | Changes in body weight, Mean ± SEM (G5 GEN1-284s 50 mg/kg, Day 33): 18.91 ± 0.59 | Clinical scores, Mean ± SEM (G5 GEN1-284s 50 mg/kg, Day 33): 3.4 ± 1.15 | Changes in body weight, Mean ± SEM (G5 GEN1-284s 50 mg/kg, Day 35): 19.09 ± 0.53 | Clinical scores, Mean ± SEM (G5 GEN1-284s 50 mg/kg, Day 35): 4.8 ± 1.36 | Clinical scores: significance vs. solvent control group, two-way ANOVA (G5 GEN1-284s 50 mg/kg, Day 35): * (* p <0.05) | Changes in body weight, Mean ± SEM (G5 GEN1-284s 50 mg/kg, Day 38): 19.10 ± 0.52 | Clinical scores, Mean ± SEM (G5 GEN1-284s 50 mg/kg, Day 38): 5.9 ± 1.54 | Clinical scores: significance vs. solvent control group, two-way ANOVA (G5 GEN1-284s 50 mg/kg, Day 38): ** (** p < 0.01) | Changes in body weight, Mean ± SEM (G5 GEN1-284s 50 mg/kg, Day 40): 19.31 ± 0.43 | Clinical scores, Mean ± SEM (G5 GEN1-284s 50 mg/kg, Day 40): 6.6 ± 1.60 | Clinical scores: significance vs. solvent control group, two-way ANOVA (G5 GEN1-284s 50 mg/kg, Day 40): ** (** p < 0.01) | Changes in body weight, Mean ± SEM (G5 GEN1-284s 50 mg/kg, Day 42): 19.39 ± 0.39 | Clinical scores, Mean ± SEM (G5 GEN1-284s 50 mg/kg, Day 42): 6.9 ± 1.55 | Clinical scores: significance vs. solvent control group, two-way ANOVA (G5 GEN1-284s 50 mg/kg, Day 42): ** (** p < 0.01)
